Data published in patent US5362634A, “Process for producing A83543 compounds” (DowElanco, priority 1991, dated 1994).
Values after ≈ are worked out from the molar mass of the structure shown. Like-named read-outs stand apart in the source and are kept apart here.

Legend:
[1] = test system: neonate CBW (cotton bollworm) larvae; assay: Topical test against neonate CBW larvae; type: in vivo, Heliothis zea; conditions: 24 h, 1 day
Procedure: (§1) Each test compound was formulated by dissolving the compound in an acetone/alcohol (1:1) mixture containing 23 g of "Toximul R" (sulfonate/nonionic emulsifier blend) and 13 g of "Toximul S" (sulfonate/nonionic emulsifier blend) per liter. These mixtures were then diluted with water to give the indicated concentrations.
(§2) Additional insects were evaluated using similar formulations and evaluation procedures, with the exceptions noted.
(§3) After standard exposure periods, percent mortality was evaluated. The following abbreviations are used:
^b Mean of two replicates tested
^c Treated with 1 mL of formulated A83543A

[2] = test system: SM (twospotted spider mite); assay: Greenhouse test against SM; type: in vivo; conditions: Tetranychus urticae
Procedure: as §1
(§4) Two-spotted spider mites (Tetranychus urticae Koch) and cotton or melon aphids (Aphis gossypii Glover) were introduced on squash cotyledons and allowed to establish on both leaf surfaces. Other plants in the same treatment pot were left uninfested. The leaves were then sprayed with 5 mL of test solution using a DeVilbiss atomizing sprayer at 10 psi. Both surfaces of the leaves were covered until runoff and then allowed to dry for one hour. Two uninfested leaves were then excised and placed into a Petri dish containing Southern armyworm (Spodoptera eridania Cramer).
(§5) After standard exposure periods, percent mortality was evaluated.

SAW (Southern armyworm) [3] = assay: Greenhouse test against SAW; type: in vivo; conditions: Spodoptera eridania, squash
Procedure: as §1, §4, §5

SAW (Southern armyworm) [4] = assay: Greenhouse test against SAW; type: in vivo; conditions: Spodoptera eridania, bushbean
[5] = test system: first instar yellow fever mosquito larvae; assay: In vitro mosquito larvicide test, first instar; conditions: Aedes aegypti, 24 h, lowest concentration with 100% inhibition after 24 hr, microtiter plates, read-out: Minimal Inhibitory Concentration
Description: The A83543 components were active against yellow fever mosquito (Aedes aegypti) larvae in standard in vitro mosquito larvicide tests.

[6] = test system: SAW (Southern armyworm) larvae; assay: Topical test against SAW larvae; type: in vivo; conditions: Spodoptera eridania
Procedure: as §1, §2, §3
^a Days between treatment and observation
^b Mean of replicates tested
^f Treated topically with 1 mL of formulated A83543A

black blow fly larvae = assay: In vitro efficacy against black blow fly larvae; conditions: Phormia regina
Description: Tables XIX-XXI summarize in vitro studies with A83543A and A83543D.

[7] = Anthelmintic activity in sheep; type: in vivo
adult BW (boll weevil) = assay: Topical test against adult BW; type: in vivo; conditions: Anthonomus grandis, 72 h, 3 days
Procedure: as §1, §2, §3
^a One replicate; observed 3 days after treatment
^b Formulated A83543A (1 mL) poured over adult insects in a Petri

adult stable fly (ASF) = assay: Guinea pig systemic test, adult stable fly; type: in vivo, Stomoxys calcitrans
Procedure: Adult guinea pigs are used in this test system. The compounds to be tested are dissolved in aqueous polyvinyl pyrrolidone or in polyethylene glycol 200, and an appropriate amount of the solution is administered either orally or by intraperitoneal injection.
Blood is drawn from the guinea pigs at 30 minutes except as noted, and the samples of blood are centrifuged. Dental wicks are saturated with the blood serum, and then exposed in Petri dishes to adult stable flies; blow fly larvae are exposed in test tubes. After 24 and 48 hours, the insects are examined, and the number of dead are counted. The results of the tests are recorded as the percent of the insects which are killed.

cabbage looper = assay: Field trial, cabbage looper on sprouting broccoli; type: in vivo
Procedure: A83543A was evaluated in field trials.

Structure (SMILES): CC[C@H]1CCC[C@H](O[C@H]2CC[C@H](N(C)C)[C@@H](C)O2)[C@@H](C)C(=O)C2=C[C@@H]3[C@@H](C=C[C@@H]4C[C@@H](O[C@@H]5O[C@@H](C)[C@H](OC)[C@@H](OC)[C@H]5OC)C[C@@H]34)[C@@H]2CC(=O)O1 [A83543A]
- inhibition at 0.5 ppm ([1]; 0.50 ppm, second series): 10%
- inhibition at 1 ppm ([1]; first series, mean of two replicates): 20%
- inhibition at 1 ppm ([1]; second series): 40%
- inhibition at 5 ppm ([1]; first series): 100%
- inhibition at 5 ppm ([1]; second series): 80%
- inhibition at 10 ppm ([1]; first series): 100%
- inhibition at 10 ppm ([1]; second series): 100%
- inhibition at 50 ppm ([1]; first series): 100%
- inhibition at 50 ppm ([1]; second series): 100%
- inhibition at 100 ppm ([1]; first series): 100%
- inhibition at 100 ppm ([1]; second series): 70%
- inhibition at 6.25 ppm ([2]; bushbean, 6.25 ppm): 0%
- inhibition at 12.5 ppm ([2]; bushbean, 12.5 ppm): 10%
- inhibition at 25 ppm ([2]; bushbean, 25 ppm): 30%
- inhibition at 50 ppm ([2]; bushbean, 50 ppm): 80%
- inhibition at 100 ppm ([2]; bushbean, 100 ppm): 100%
- inhibition at 31.25 ppm ([2]; squash, 31.25 ppm): 0%
- inhibition at 62.5 ppm ([2]; squash, 62.5 ppm): 20%
- inhibition at 125 ppm ([2]; squash, 125 ppm): 40%
- inhibition at 250 ppm ([2]; squash, 250 ppm): 70%
- inhibition at 1.9 ppm (SAW (Southern armyworm) [3]; 1.9 ppm): 0%
- inhibition at 3.9 ppm (SAW (Southern armyworm) [3]; 3.9 ppm): 20%
- inhibition at 7.8 ppm (SAW (Southern armyworm) [3]; 7.8 ppm): 20%
- inhibition at 15.63 ppm (SAW (Southern armyworm) [3]; 15.63 ppm): 40%
- inhibition at 31.25 ppm (SAW (Southern armyworm) [3]; 31.25 ppm): 55%
- inhibition at 62.5 ppm (SAW (Southern armyworm) [3]; 62.5 ppm): 100%
- inhibition at 125 ppm (SAW (Southern armyworm) [3]; 125 ppm): 100%
- inhibition at 250 ppm (SAW (Southern armyworm) [3]; 250 ppm): 100%
- inhibition at 12.5 ppm (SAW (Southern armyworm) [4]; 12.5 ppm): 0%
- inhibition at 25 ppm (SAW (Southern armyworm) [4]; 25 ppm): 40%
- inhibition at 50 ppm (SAW (Southern armyworm) [4]; 50 ppm): 80%
- inhibition at 100 ppm (SAW (Southern armyworm) [4]; 100 ppm): 100%
- MIC [5]: 0.016 µg/mL (≈ 0.0219 µM)
- MIC ([5]; second of two lots): 0.031 µg/mL (≈ 0.0424 µM)
- inhibition at 1 ppm ([6]; 24 h, second instar, 1 day): 0%
- inhibition at 5 ppm ([6]; 24 h, second instar, 1 day): 0%
- inhibition at 10 ppm ([6]; 24 h, second instar, 1 day): 0%
- inhibition at 50 ppm ([6]; 24 h, second instar, 1 day): 80%
- inhibition at 100 ppm ([6]; 24 h, second instar, 1 day): 100%
- inhibition at 10 ppm ([6]; 48 h, fifth instar, 2 days): 0%
- inhibition at 50 ppm ([6]; 48 h, fifth instar, 2 days): 0%
- inhibition at 1 ppm ([6]; 48 h, third instar, 2 days): 0%
- inhibition at 5 ppm ([6]; 48 h, third instar, 2 days): 0%
- inhibition at 10 ppm ([6]; 48 h, third instar, 2 days): 13.3%
- inhibition at 50 ppm ([6]; 48 h, third instar, 2 days): 73.3%
- inhibition at 1 ppm ([6]; 72 h, neonate, 3 days): 0%
- inhibition at 5 ppm ([6]; 72 h, neonate, 3 days): 60%
- inhibition at 10 ppm ([6]; 72 h, neonate, 3 days): 100%
- inhibition at 50 ppm ([6]; 72 h, neonate, 3 days): 100%
- inhibition at 100 ppm ([6]; 72 h, neonate, 3 days): 100%
- mortality at 0.25 ppm (black blow fly larvae; 0.25 ppm): 25%
- mortality at 0.5 ppm (black blow fly larvae; 0.5 ppm): 60%
- mortality at 1 ppm (black blow fly larvae; 1 ppm): 95%
- mortality at 2 ppm (black blow fly larvae; 2 ppm): 100%
- mortality at 5 ppm (black blow fly larvae; 5 ppm): 100%
- mortality at 10 ppm (black blow fly larvae; 10 ppm): 100%
- mortality at 25 ppm (black blow fly larvae; 25 ppm): 100%
- mortality at 50 ppm (black blow fly larvae; 50 ppm): 100%
- mortality at 100 ppm (black blow fly larvae; 100 ppm): 100%
- anthelmintic activity ([7]; single intraperitoneal dose of 50 mg/kg): did not show anthelmintic activity
- anthelmintic activity ([7]; single intraruminal dose of 50 mg/kg): did not show anthelmintic activity
- inhibition at 1 ppm (adult BW (boll weevil); 1.00 ppm): 0%
- inhibition at 5 ppm (adult BW (boll weevil); 5.00 ppm): 20%
- inhibition at 10 ppm (adult BW (boll weevil); 10.00 ppm): 20%
- inhibition at 50 ppm (adult BW (boll weevil); 50.00 ppm): 100%
- inhibition at 100 ppm (adult BW (boll weevil); 100.0 ppm): 100%
- % Activity ASF (adult stable fly (ASF); 10 mg/kg IP, bled 30 min): 0%
- % Activity ASF (adult stable fly (ASF); 10 mg/kg IP, bled 5 hr): 0%
- % Activity ASF (adult stable fly (ASF); 10 mg/kg IP, bled 24 hr): 0%
- % Activity ASF (adult stable fly (ASF); 20 mg/kg IP, bled 30 min): 0%
- % Activity ASF (adult stable fly (ASF); 20 mg/kg IP, bled 5 hr): 0%
- % Activity ASF (adult stable fly (ASF); 20 mg/kg IP, bled 24 hr): 0%
- % Activity ASF (adult stable fly (ASF); 30 mg/kg IP, bled 30 min): 50%
- % Activity ASF (adult stable fly (ASF); 30 mg/kg IP, bled 5 hr): 0%
- % Activity ASF (adult stable fly (ASF); 30 mg/kg IP, bled 24 hr): 0%
- % Activity ASF (adult stable fly (ASF); 50 mg/kg IP, bled 30 min): 100%
- % Activity ASF (adult stable fly (ASF); 50 mg/kg IP, bled 5 hr): 40%
- % Activity ASF (adult stable fly (ASF); 50 mg/kg IP, bled 24 hr): 30%
- % Activity ASF (adult stable fly (ASF); 50 mg/kg oral, bled 5 hr): 60%
- % Activity ASF (adult stable fly (ASF); 50 mg/kg oral, bled 24 hr): 0%
- mortality at 10 mg/kg (adult stable fly (ASF); Stomoxys calcitrans, in Cavia porcellus, 10 mg/kg IP): 0%
- mortality at 20 mg/kg (adult stable fly (ASF); Stomoxys calcitrans, in Cavia porcellus, 20 mg/kg IP): 0%
- mortality at 30 mg/kg (adult stable fly (ASF); Stomoxys calcitrans, in Cavia porcellus, 30 mg/kg IP): 50%
- mortality at 50 mg/kg (adult stable fly (ASF); Stomoxys calcitrans, in Cavia porcellus, 50 mg/kg IP): 100%
- mortality at 50 mg/kg (adult stable fly (ASF); Stomoxys calcitrans, in Cavia porcellus, 50 mg/kg OR (oral), 5-hr blood sample): 60%
- activity in field trials (cabbage looper): showed activity
